Assay: Pre-emergence (experimental example 1) and post-emergence (experimental example 2) herbicidal tests, reported together
Type: in vivo
Settings: 336 h; one or more weed species, in one or both of experimental examples 1 (pre-emergence, 250 g/ha) and 2 (post-emergence, 250 g/ha or less); two weeks after treatment, versus untreated control; read-out: reduction in the growth of one or more weed species
Procedure: Seed of various broad-leaf and grass weed species were sown and herbicide, dissolved in a mixture of acetone and water, was applied at a rate of 250 g/ha to the soil surface. The said weeds are Amaranthus retroflexus, Abutilon theophrasti, Galium aparine, Ipomoea purpurea, Setaria viridis, Alopecurus myosuroides, Avena fatua and Echinochloa crus-calli. Two weeks after treatment the percentage reduction in plant growth was assessed in comparison with an untreated control. Seed of the various weed species, as listed in experimental example 1, were sown and grown up to a 1-3 leaves stage. A post-emergence application of herbicide, dissolved in a mixture of acetone and water, was applied at a rate of 250 g/ha or less. Two weeks after treatment the percentage reduction in plant growth was assessed, in comparison with an untreated control.

`COC=C(Oc1cccc(COc2ccc(C#N)cc2)c1C(=O)O)C(=O)OC` [Compound 18, methyl 2-[2-carboxy-3-(4-cyanophenoxymethyl)phenoxy]-3-methoxypropenoate] and `COC=C(Oc1cccc(COc2ccc(C)cc2)c1C(=O)O)C(=O)OC` [Compound 20, methyl 2-[2-carboxy-3-(4-methylphenoxymethyl)phenoxy]-3-methoxypropenoate] cannot be ordered by pest or weed control at up to 250 g/ha: no less than 70% for the first, no less than 70% for the second.

`COC=C(Oc1cccc(COc2ccc(OC)cc2)c1C(=O)O)C(=O)OC` [Compound 19, methyl 2-[2-carboxy-3-(4-methoxyphenoxymethyl)phenoxy]-3-methoxypropenoate] and `COC=C(Oc1cccc(COc2ccc(Cl)cc2)c1C(=O)O)C(=O)OC` [Compound 17, methyl 2-(2-carboxy-3-(4-chlorophenoxymethyl)phenoxy)-3-methoxypropenoate] cannot be ordered by pest or weed control at up to 250 g/ha: no less than 80% for the first, no less than 70% for the second.

`COC=C(Oc1cccc(COC(C)=O)c1C(=O)O)C(=O)OC` [Compound 2, methyl 2-(3-acetoxymethyl-2-carboxyphenoxy)-3-methoxypropenoate] and `COC=C(Oc1cccc(COc2ccccc2)c1C(=O)O)C(=O)OC` [Compound 16, methyl 2-(2-carboxy-3-phenoxymethylphenoxy)-3-methoxypropenoate] cannot be ordered by pest or weed control at up to 250 g/ha: no less than 80% for the first, no less than 80% for the second.

`COC=C(Oc1cccc(OC(=COC)C(=O)OC)c1C(=O)O)C(=O)OC` [Compound 1, 2,6-bis(2-methoxy-1-methoxycarbonyl-vinyloxy)benzoic acid] and `C#CCOC(=O)c1c(OC(=COC)C(=O)OC)cccc1OC(=COC)C(=O)OC` [Compound 13, propargyl 2,6-bis(2-methoxy-1-methoxycarbonyl-vinyloxy)benzoate] cannot be ordered by pest or weed control at up to 250 g/ha: no less than 80% for the first, no less than 80% for the second.
